# Measurements reported in patent EP4134671A1, “METHYLENE QUINUCLIDINONE COMPANION DIAGNOSTICS” (Deutsches Krebsforschungszentrum Stiftung des öffentlichen …, priority 2021, dated 2023).
# Assays:
# Zebrafish embryo = Zebrafish embryo drug toxicity assay; assay type: in vivo; conditions: embryos 48 hpf, 34°C, imaged at 72 hpf and 120 hpf; APR-246 range 10-200 µM, Vorinostat range 2.5-100 µM
# Method: The toxicity of the compounds was assessed before performing in vivo experiments and a Maximum Tolerated Dose (MTD) was determined. Embryos (48 hpf) were transferred to 48-well uncoated plates (Corning) containing different concentrations of the compounds and a solvent control. The stock solution of the compounds was further dissolved in E3 buffer supplemented with 0.2mM 1-phenyl-2- thiourea (PTU, Sigma) in order to reach the desired concentrations. Three embryos were tested per concentration or solvent control. Embryos were kept at 34°C during the experiment and were imaged at 72 hpf and 120 hpf using a stereo microscope (Leica). The embryos were assessed for signs of toxicity, like death, morphology changes (curvature of body, edema) and behavioral changes. APR-246 concentration range tested: 10-200 µM, MTD: 50µM; solvent control: DMSO (0.2% and 0.5%); Vorinostat concentration range tested: 2.5-100 µM, no toxicity detected (MTD: 100µM); solvent control: DMSO (0.1%).
# [1] = Clinical plasma pharmacokinetics (background); assay type: in vivo; conditions: estimated from Cmax and half-life
# [2] = system: p53 target genes CDKN1A, PUMA and GADD45A; experiment: Real-time PCR of p53 pathway activation in IMR-32; assay type: cell-based; conditions: IMR-32 (TP53-wt), APR-246 added to doxorubicin vs doxorubicin only, 24 h
# Method: (§1) Real-time PCR was performed as described previously (Fischer et al., J Mol Diagn 2005, 7, 89-96; Witt et al., Blood 2003, 101, 2001-2007). The following primers were purchased from ThermoFisher Scientific: CDKN1A (p21^WAF1/^CIP1, forward: 5'-TGGAGACTCTCAGGGTCGAAA-3'(SEQ ID NO:1), reverse: 5'-GGCGTTTGGAGTGGTAGAAATC-3'(SEQ ID NO.2)), HPRT (forward: 5'-TGACACTGGCAAAACAATGCA-3'(SEQ ID NO:3), reverse: 5'-GGTCCTTTTCACCAGCAAGCT-3'(SEQ ID NO:4)), SDHA (forward: 5'-TGGGAACAAGAGGGCATCTG-3'(SEQ ID NO:5), reverse: 5'-CCACCACTGCATCAAATTCATG-3'(SEQ ID NO:6)), and PUMA (forward: 5'-CCTGGAGGGTCCTGTACAATCT-3'(SEQ ID NO:7), reverse: 5'-GCACCTAATTGGGCTCCATCT-3'(SEQ ID NO:8)). The primer for GADD45A was purchased from Qiagen, Hilden, Germany (QT00014084). The delta-delta-Ct method was used to calculate the relative expression, and normalization was performed to neuroblastoma specific housekeeping genes SDHA and HPRT (Fischer et al., J Mol Diagn 2005, 7, 89-96).
# [3] = system: p53 target gene expression; experiment: Real-time PCR of p53 pathway activation in SK-N-BE(2)-C; assay type: cell-based; conditions: SK-N-BE(2)-C (C135F), APR-246 added to doxorubicin, 24 h
# Method: as §1
# [4] = system: p53 target gene expression (CDKN1A and GADD45A); experiment: Real-time PCR of p53 pathway activation in SJ-GBM2; assay type: cell-based; conditions: APR-246 treatment
# Method: as §1
# [5] = system: p53 target gene expression (CDKN1A and GADD45A); experiment: Real-time PCR of p53 pathway activation in SF188; assay type: cell-based; conditions: APR-246 treatment
# Method: as §1
# IMR-32 cells = experiment: Flow cytometry: ROS (DCFDA) and lipid peroxidation (BODIPY); assay type: cell-based; conditions: IMR-32, 50 µM APR-246 for 5 h vs solvent control (DMSO), FACS
# Method: Flow Cytometry was applied to analyze the lipid peroxidation (BODIPY staining) and to detect ROS (DCFDA staining). BODIPY 581/591 C11 Lipid peroxidation sensor staining (stock concentration: 20 mM in dimethylformamide, Invitrogen, Thermo Fisher Scientific) was used at a working concentration of 20 µM, and was diluted with RPMI without phenol red (Gibco). After inspection, the cells were detached, centrifuged and stained for 20 minutes at 37°C in a 500 µl staining solution. After centrifugation, cells were resuspended in 300 µl RPMI without phenol red, supplemented with 10% FCS. Fluorescence was measured in a FACSCanto II (BD) with 488 nm excitation and detected using a 502 nm longpass and 530/30 nm bandpass filter. Data were analyzed using FlowJo 10.x.
# ROS detection was performed as previously described (Oehme et al., Proc Natl Acad Sci U S A 2013, 110, E2592-2601).
# [6] = system: vincristine resistant SK-N-BE(2)-C; experiment: Metabolic activity assay (CellTiter-Glo), vincristine resistant cells; assay type: cell-based; conditions: vincristine resistant vs non-resistant control SK-N-BE(2)-C; 72 h, APR-246 0 - 30 µM
# Method: Vincristine resistant and non-resistant SK-N-BE(2)-C (passage 30 to 45, kindly provided by M. Michaelis, University of Kent, and J. Cinatl, Goethe University, Frankfurt am Main) were cultured using IMDM with L-Glutamine, 2mM HEPES (Gibco) supplemented with 10% FCS; for the resistant cells, 20 ng/ml vincristine was added to the medium. The cells were made to be resistant to vincristine-treatment through long-term cultivation in a vincristine containing medium.
# If not otherwise declared, cells were precultured for 72 h at a density of 2,000,000 cells per T75 flask (exceptions: Kelly, NB1 and IMR-32 4,000,000 per T75 flask, SJ-GBM2 1,000,000 per T75 flask). Cells were detached with trypsin-EDTA (ThermoFisher Scientific) and seeded in 96-well plates (Greiner, Microplate, 96-Well, PS, F-bottom µCLEAR®, CELLSTAR®) in 100 µl medium per well at a density of 5,000 (KNS-42, SJ-GBM2, SF188, SK-N-BE(2)-C) or 10,000 (IMR-32, NB1, Kelly) cells/well. HDAC-inhibitor screenings were performed accordingly in 384-well plates (Greiner, Microplate, 384-Well, PS, F-bottom µCLEAR®, CELLSTAR®) in 20 µl medium per well at a density of 1,250 (SK-N-BE(2)-C, SK-N-AS) or 2,500 (IMR-32) cells/well. […] Cell viability was quantified using CellTiter-Glo® 2.0 kit (Promega, Madison, USA). […] Bioluminescence was quantified on an OPTIMA plate reader (BMG Labtech, Ortenberg, Germany).
# [7] = clinical; cited from earlier work
compound,measurement,setting,value
"COCC1(CO)C(=O)C2CCN1CC2 (stereo not shown) [APR-246, 2-(Hydroxymethyl)-2-(methoxymethyl)-1-azabicyclo[2.2.2]octan-3-one]",Maximum Tolerated Dose (MTD),Zebrafish embryo,50 µM
same,estimated trough plasma concentration,[1],15 to 20 µM
same,p53 target gene expression,[2],did not increase target gene expression
same,p53 target gene induction,[3],did not improve p53 target gene induction
same,p53 target gene expression (CDKN1A and GADD45A),[4],no reactivation
same,p53 target gene expression (CDKN1A and GADD45A),[5],no reactivation
same,ROS formation and lipid peroxidation,IMR-32 cells,increased ROS formation and lipid peroxidation
same,APR-246 sensitivity (metabolic activity),[6],increased APR-246 sensitivity
same,half-life,[7],four to five
same,maximum plasma concentration,[7],approximately 280 µM
